In patent US12070452B2, “Compounds targeting HSP110 protein for cancer treatment” (INSERM (Institut National de la Santé et de la Recherche …, priority 2018, dated 2024):

What was measured:
[1] = test system: DLBCL cell lines (HBL1, TMD8, U2932); experiment: Viability of B-cell lymphoma cell lines, combination with Ibrutinib; format: cell-based, human; conditions: compound 33 at suboptimal 10 μM, Ibrutinib 0.01-100 nM
Description: FIG. 12: Viability of various B-cell lymphoma cell lines treated with a suboptimal concentration of compound 33 (i) alone or (ii) in combination with increasing concentrations of Ibrutinib.
Groups of bars, from the left to the right of FIG. 12: (i) HBL1 human diffuse large B-cell lymphoma cell line not treated with compound 33 and treated with and increasing concentrations of Ibrutinib, (ii) HBL1 human diffuse large B-cell lymphoma cell line treated with 10 μM of compound 33 and increasing concentrations of Ibrutinib, (iii) TMD8 human B cell lymphoma cell line not treated with compound 33 and treated with and increasing concentrations of Ibrutinib, (iv) TMD8 human B cell lymphoma cell line treated with 10 μM of compound 33 and increasing concentrations of Ibrutinib, (v) U2932 human diffuse large B-cell lymphoma cell line not treated with compound 33 and treated with and increasing concentrations of Ibrutinib, and (vi). U2932 human diffuse large B-cell lymphoma cell line treated with 10 μM of compound 33 and increasing concentrations of Ibrutinib.
In each group of bars, form the left to the right: (i) Control (0 nM), without treatment with Ibrutinib, (ii) Ibrutinib at 0.01 nM, (iii) Ibrutinib at 0.1 nM, (iv) Ibrutinib at 1 nM, (v) Ibrutinib at 10 nM, (vi) Ibrutinib at 100 nM.

CT26 tumors = experiment: Immunofluorescence of P-STAT3 and cleaved caspase-3 in CT26 tumor slides (Balb/c); format: in vivo, mouse
Excerpt: FIG. 7A: Immunofluorescence assay of P-STAT3 (Phosphorylated STAT3) in CT26 cells in Balb/c mice tumors treated with VEH (non-relevant compound which is DMSO) (column on the left) or with compound 33 (column on the right). […] Statistical analysis has been performed by ANOVA (*=p=0.0019).
FIG. 7B: Immunofluorescence assay of cleaved caspase-3 (C3C) in CT26 cells in Balb/c mice tumors treated with VEH (column on the left) or with compound 33 (column on the right). […] (Ordinate: Caspase-3 cleaved relative fluorescence in percentage). Statistical analysis has been performed by ANOVA (***=p=0.0003)
Two different colorectal mouse models were used: a syngeneic model for which mouse colon cancer CT-26 cells were injected into Balb/c mice and a NOD/SCID model in which mice were implanted with human colorectal cancer HCT116 cells (FIG. 4 A-B). When the tumor reached a size of −2 mm, mice were treated intraperitoneally with the compound 33 at 5 mg/Kg (BALB/c n=11, NOD SCID n=6) or corn oil 5% DMSO (BALB/c n=10, NOD SCID n=6), every three days until the end of the experiment. The compound 33 was dissolved in DMSO, then diluted 20 times in corn oil (Sigma Aldrich-C8267) and sterilized by filtration with PTFE membrane Millex 0.2 μm (Millipore-SLFG025LS). Tumors were analyzed before reaching 2000 mm3. […]

[2] = test system: tumor-infiltrating macrophages; experiment: Macrophage M1/M2-like markers in tumor slides, NOD/SCID HCT116 xenograft model; format: in vivo, mouse
Description: Statistical analysis has been performed by ANOVA (***=p=0.0019). FIG. 9B: M2-like markers pSTAT6 and ALOX15 were determined in tumor slides from NOD mice bearing HCT116 xenografts, treated or not with the compound 33 (related to formula (II)). Statistical analysis has been performed by ANOVA (***: p=0.0481). […] Anti-p-STAT1 (1/200; polyclonal, Cell Signaling), anti-SOCS1 (Suppressor of Cytokine Signaling protein 1, 1/200; polyclonal, Santa Cruz), and anti-NOS2 (Nitric Oxide Synthase 2, 1/200; polyclonal Santa Cruz) antibodies were used for M1-like macrophage markers. Anti-pSTAT6 (1/200; polyclonal Santa Cruz), anti-arginase-1 (1/200; polyclonal Santa Cruz) and anti-ALOX15 (Arachidonate 15-LipOXygenase, 1/200; monoclonal Santa Cruz) antibodies were used for M2-like macrophage markers. Primary antibodies were detected using Alexa fluor 488 or Alexa fluor 568-coupled secondary antibodies (1/500, Invitrogen). Nuclei were stained with 10 μl of ProLong Gold Antifade Mountant with DAPI (Molecular Probes). The same protocol was used for NOD/SCID mice except that mice were killed after 16 days after HCT116 cells injection. For the Balb/c model, mice were sacrificed at day 62 (day 1 being the first day of treatment). […] Especially the pSTAT1 relative expression measured is about 1.5 for compound 33 compared to 1.0 for the control, the NOS2 relative expression measured is about 1 for compound 33 compared to 2.5 for the control (FIG. 8A) in CT-26-Balb/c mice model. The pSTAT1 relative expression measured is about 1.5 for compound 33 compared to 0 for the control and the NOS2 relative expression measured is about 20 for compound 33 compared to 2 for the control (FIG. 8B) in NOD/SCID mice model.

[3] = test system: human colorectal cancer HCT116 cells; experiment: Tumor growth, HCT116 xenograft in NOD/SCID mice; format: in vivo; conditions: HCT116, 5 mg/Kg intraperitoneally every three days
Description: FIG. 6B: Tumor volume monitoring of HCT116 cells grown in NOD/SCID animals treated intraperitoneally either with a non-relevant compound which is DMSO (named VEH line with circle) or treated with the compound 33 (5 mg/kg—line with square) (Abscissa: Days from 0 to 62 in day; Ordinate: Tumor volume in mm^3 from 0 to 2500 (scale 500)).
Two different colorectal mouse models were used: a syngeneic model for which mouse colon cancer CT-26 cells were injected into Balb/c mice and a NOD/SCID model in which mice were implanted with human colorectal cancer HCT116 cells (FIG. 4 A-B). When the tumor reached a size of −2 mm, mice were treated intraperitoneally with the compound 33 at 5 mg/Kg (BALB/c n=11, NOD SCID n=6) or corn oil 5% DMSO (BALB/c n=10, NOD SCID n=6), every three days until the end of the experiment. The compound 33 was dissolved in DMSO, then diluted 20 times in corn oil (Sigma Aldrich-C8267) and sterilized by filtration with PTFE membrane Millex 0.2 μm (Millipore-SLFG025LS). Tumors were analyzed before reaching 2000 mm3. Treatment by compound 33 induces a decrease in tumor growth of 40% and 60% in the Balb/c and NOD mice, respectively (FIGS. 6A and 6B).

TMD8 human DLBCL cells = experiment: TMD8 DLBCL xenograft in immunodeficient mice, tumor growth; format: in vivo; conditions: 10 or 20 mg/kg intraperitoneally
Description: FIG. 11A: Tumor volume monitoring of TMD8 human DLBCL cells grown in Immunodeficient mice treated intraperitoneally with the compound 52 (=inhibitor 52) at 10 or 20 mg/kg or with vehicle at the same frequency. (Abscissa: Days from 0 to 25 in day; Ordinate: Tumor volume in mm^3 from 0 to 4000 (scale 1000)).
FIG. 11B: Tumor weight monitoring of TMD8 human DLBCL cells grown in Immunodeficient mice treated intraperitoneally with the compound 52 (=inhibitor 52) at 10 or 20 mg/kg or with vehicle at the same frequency. (Abscissa: Treatments vehicle, 10 mg/kg or 20 mg/kg of compound 52; Ordinate: Tumor weight in g from 0 to 4 g (scale 1)).

[4] = NOD/SCID HCT116 model, control 1

SMILES | effect in combination with Ibrutinib on viability [1] | P-STAT3 in tumor slides (relative fluorescence) (CT26 tumors; CT26 tumors in Balb/c mice, control 100%) [%] | tumor cell apoptosis (cleaved caspase-3 staining) (CT26 tumors; CT26 tumors, Balb/c model) | SOCS1 expression (M1 marker) ([2]; NOD/SCID (xenograft) model) | pSTAT1 relative expression (M1 marker) ([2]; NOD/SCID HCT116 model, control 0) | ALOX15 relative expression (M2 marker) [2, 4] | pSTAT6 relative expression (M2 marker) [2, 4] | NOS2 relative expression (M1 marker) ([2]; NOD/SCID HCT116 model, control 2) | decrease in tumor growth [3] [%] | tumor growth of xenografted DLBCL cell line (TMD8 human DLBCL cells)
COc1ccc(-c2ncc(-c3ncc(-c4cc(OC)c(OC)c(OC)c4)cc3/C=C/c3ccccc3)cc2C)cc1OC [compound 33, (E)-6′-(3,4-Dimethoxyphenyl)-5′-methyl-3-styryl-5-(3,4,5-trimethoxyphenyl)-2,3′-bipyridine] | synergistic effect | 50 | increase in tumor cell apoptosis | increase | about 1.5 | about 0 | about 0 | about 20 | 60 | –
COc1cc(-c2cnc(-c3cnc(-c4cc(OC)c(OC)c(OC)c4)c(C)c3)c(/C=C/c3ccccc3)c2)cc(OC)c1OC [compound 52, (E)-5′-Methyl-3-styryl-5,6′-bis(3,4,5-trimethoxyphenyl)-2,3′-bipyridine] | – | – | – | – | – | – | – | – | – | reduced the tumor growth
